Values quoted from earlier work, collected in patent US20070111953A1, “Compositions to improve the bioavailability of polymethoxyflavones and tocotrienols for treatment of cardiovascular disease” (KGK Synergize, Inc., priority 2005, published 2007).

Tested on: acetylated LDL metabolism

## COc1ccc(-c2cc(=O)c3c(OC)c(OC)c(OC)c(OC)c3o2)cc1OC [nobiletin]
  Inhibition of acetylated LDL metabolism: 50-72%
